System: MV-4-11 cells
Assay: Gene expression microarray analysis (Affymetrix PrimeView) and GSEA
Format: cell-based, human
Parameters: RFU PODN (11730768_x_at) / Fold change /veh PODN (11730768_x_at) / RFU LINC00158 (11744669_a_at) / Fold change /veh LINC00158 (11744669_a_at) / RFU DUSP10 (11751237_a_at) / Fold change /veh DUSP10 (11751237_a_at) / RFU ID3 (11757404_x_at) / Fold change /veh ID3 (11757404_x_at) / RFU PLEKHG5 (11737974_s_at) / Fold change /veh PLEKHG5 (11737974_s_at) / RFU LRRC4B (11730491_at) / Fold change /veh LRRC4B (11730491_at) / RFU GIMAP4 (11747438_a_at) / Fold change /veh GIMAP4 (11747438_a_at) / RFU KRT8 (11758183_x_at) / Fold change /veh KRT8 (11758183_x_at) / RFU CNN1 (11734310_a_at) / Fold change /veh CNN1 (11734310_a_at) / RFU VPS37D (11726825_at) / Fold change /veh VPS37D (11726825_at) / RFU C10orf10 (11716522_x_at) / Fold change /veh C10orf10 (11716522_x_at) / RFU KIR2DL2 /// KIR2DL4 /// KIR2DL5A /// KIR2DL5B /// KIR2DS1 /// KIR2DS2 /// KIR2DS3 /// KIR2DS4 /// KIR3DL3 /// KIR3DL3 /// KIR3DS1 (11738374_at) / Fold change /veh KIR2DL2 /// KIR2DL4 /// KIR2DL5A /// KIR2DL5B /// KIR2DS1 /// KIR2DS2 /// KIR2DS3 /// KIR2DS4 /// KIR3DL3 /// KIR3DL3 /// KIR3DS1 (11738374_at) / RFU C1QL1 (11718748_at) / Fold change /veh C1QL1 (11718748_at) / RFU TMPRSS4 (11747572_a_at) / Fold change /veh TMPRSS4 (11747572_a_at) / RFU HAMP (11756126_x_at) / Fold change /veh HAMP (11756126_x_at) / RFU RNFT2 (11725882_a_at) / Fold change /veh RNFT2 (11725882_a_at) / RFU NR4A2 (11747474_a_at) / Fold change /veh NR4A2 (11747474_a_at) / RFU ABCC12 (11746883_a_at) / Fold change /veh ABCC12 (11746883_a_at) / RFU TMEM136 (11760407_x_at) / Fold change /veh TMEM136 (11760407_x_at) / RFU CLDN22 /// WWC2 (11732394_at) / Fold change /veh CLDN22 /// WWC2 (11732394_at) / RFU HLA-DPB1 (11760878_x_at) / Fold change /veh HLA-DPB1 (11760878_x_at) / RFU SPINT1 (11716480_a_at) / Fold change /veh SPINT1 (11716480_a_at) / RFU GAP43 (11754022_s_at) / Fold change /veh GAP43 (11754022_s_at) / RFU A4GNT (11735810_at) / Fold change /veh A4GNT (11735810_at) / RFU PRB3 (11715151_x_at) / Fold change /veh PRB3 (11715151_x_at) / RFU TUBB4B (11761932_at) / Fold change /veh TUBB4B (11761932_at) / RFU CAPN14 (11732068_a_at) / Fold change /veh CAPN14 (11732068_a_at) / RFU TMCC2 (11721928_a_at) / Fold change /veh TMCC2 (11721928_a_at) / RFU IRGQ (11745062_a_at) / Fold change /veh IRGQ (11745062_a_at) / RFU FAM174B (11720279_a_at) / Fold change /veh FAM174B (11720279_a_at) / RFU TMPRSS4 (11748680_a_at) / Fold change /veh TMPRSS4 (11748680_a_at) / RFU FAM212B (11763350_a_at) / Fold change /veh FAM212B (11763350_a_at) / RFU PLEKHG5 (11743358_a_at) / Fold change /veh PLEKHG5 (11743358_a_at) / RFU ZSCAN30 (11745921_a_at) / Fold change /veh ZSCAN30 (11745921_a_at) / RFU CMKLR1 (11741424_a_at) / Fold change /veh CMKLR1 (11741424_a_at) / RFU LOC101060620 /// MAPK8IP1 (11723275_at) / Fold change /veh LOC101060620 /// MAPK8IP1 (11723275_at) / RFU SPTSSB (11747773_x_at) / Fold change /veh SPTSSB (11747773_x_at) / RFU PRSS12 (11739890_at) / Fold change /veh PRSS12 (11739890_at) / RFU BIN1 (11741810_x_at) / Fold change /veh BIN1 (11741810_x_at) / RFU WNT11 (11732464_a_at) / Fold change /veh WNT11 (11732464_a_at) / RFU C10orf10 (11716521_a_at) / Fold change /veh C10orf10 (11716521_a_at) / RFU C5orf56 (11738089_at) / Fold change /veh C5orf56 (11738089_at) / RFU CYB561 (11721691_x_at) / Fold change /veh CYB561 (11721691_x_at) / RFU ANKRD19P (11752326_a_at) / Fold change /veh ANKRD19P (11752326_a_at) / RFU OR2T12 /// OR2T33 /// OR2T8 (11738714_s_at) / Fold change /veh OR2T12 /// OR2T33 /// OR2T8 (11738714_s_at) / RFU VCAN (11748164_a_at) / Fold change /veh VCAN (11748164_a_at) / RFU JSRP1 (11732532_at) / Fold change /veh JSRP1 (11732532_at) / RFU KRTAP10-11 (11738290_x_at) / Fold change /veh KRTAP10-11 (11738290_x_at) / RFU MYO3A (11730013_a_at) / Fold change /veh MYO3A (11730013_a_at) / RFU EBF3 (11725865_a_at) / Fold change /veh EBF3 (11725865_a_at) / RFU CAMK2N1 (11719241_x_at) / Fold change /veh CAMK2N1 (11719241_x_at) / RFU C5orf56 (11738088_a_at) / Fold change /veh C5orf56 (11738088_a_at) / RFU OLFML3 (11715873_a_at) / Fold change /veh OLFML3 (11715873_a_at) / RFU LOC100653217 /// NTM (11731650_a_at) / Fold change /veh LOC100653217 /// NTM (11731650_a_at) / RFU MAPK11 (11762145_a_at) / Fold change /veh MAPK11 (11762145_a_at) / RFU FIZ1 (11724087_x_at) / Fold change /veh FIZ1 (11724087_x_at) / RFU OASL (11726364_x_at) / Fold change /veh OASL (11726364_x_at) / RFU SOX15 (11748057_x_at) / Fold change /veh SOX15 (11748057_x_at) / RFU CD79A (11719716_a_at) / Fold change /veh CD79A (11719716_a_at) / RFU HIST1H1D (11736915_at) / Fold change /veh HIST1H1D (11736915_at) / RFU CASKIN2 (11723855_a_at) / Fold change /veh CASKIN2 (11723855_a_at) / RFU LOC730098 (11760151_x_at) / Fold change /veh LOC730098 (11760151_x_at) / RFU OR4N2 (11742367_at) / Fold change /veh OR4N2 (11742367_at) / RFU PRRT2 (11749266_a_at) / Fold change /veh PRRT2 (11749266_a_at) / RFU SNX32 (11753110_a_at) / Fold change /veh SNX32 (11753110_a_at) / RFU CDHR5 (11726645_a_at) / Fold change /veh CDHR5 (11726645_a_at) / RFU RCAN1 (11760418_a_at) / Fold change /veh RCAN1 (11760418_a_at) / RFU FAM167A (11723789_a_at) / Fold change /veh FAM167A (11723789_a_at) / RFU FAM26E (11764081_at) / Fold change /veh FAM26E (11764081_at) / RFU ISYNA1 (11749810_s_at) / Fold change /veh ISYNA1 (11749810_s_at) / RFU ACY1 (11761880_at) / Fold change /veh ACY1 (11761880_at) / RFU 11764098_at / Fold change /veh 11764098_at / RFU SAMD14 (11745864_x_at) / Fold change /veh SAMD14 (11745864_x_at) / RFU NPB (11741838_a_at) / Fold change /veh NPB (11741838_a_at) / RFU TMPRSS6 (11731388_a_at) / Fold change /veh TMPRSS6 (11731388_a_at) / RFU KRTAP10-2 (11738614_at) / Fold change /veh KRTAP10-2 (11738614_at) / RFU ARHGAP8 /// PRR5-ARHGAP8 (11727945_x_at) / Fold change /veh ARHGAP8 /// PRR5-ARHGAP8 (11727945_x_at) / RFU KRTAP5-7 /// NADSYN1 (11734609_at) / Fold change /veh KRTAP5-7 /// NADSYN1 (11734609_at) / RFU RASL12 (11751679_a_at) / Fold change /veh RASL12 (11751679_a_at) / RFU CDKN2B (11736163_a_at) / Fold change /veh CDKN2B (11736163_a_at) / RFU PRF1 (11729649_at) / Fold change /veh PRF1 (11729649_at) / RFU, ZNF638 /// ZNF638-IT1 / Fold change vs veh, ZNF638 /// ZNF638-IT1 / RFU, PANK3 / Fold change vs veh, PANK3 / RFU, SH3YL1 / Fold change vs veh, SH3YL1 / RFU, ZEB2 / Fold change vs veh, ZEB2 / RFU, NRIP1 / Fold change vs veh, NRIP1 / RFU, PTTG1IP / Fold change vs veh, PTTG1IP / RFU, CAPN2 / Fold change vs veh, CAPN2 / RFU, MED14 / Fold change vs veh, MED14 / RFU, SNORA58 / Fold change vs veh, SNORA58 / RFU, C1orf63 / Fold change vs veh, C1orf63 / RFU, LRRFIP1 / Fold change vs veh, LRRFIP1 / RFU, NDUFAF7 / Fold change vs veh, NDUFAF7 / RFU, SLC12A2 / Fold change vs veh, SLC12A2 / RFU, IBTK / Fold change vs veh, IBTK / RFU, ESF1 / Fold change vs veh, ESF1 / Fold change vs veh, TMEM50B / RFU, TAOK1 / Fold change vs veh, TAOK1 / RFU, ACBD3 / Fold change vs veh, ACBD3 / RFU, TMA16 / Fold change vs veh, TMA16 / RFU, RWDD3 / Fold change vs veh, RWDD3 / RFU, BCAT1 / Fold change vs veh, BCAT1 / RFU, EDEM3 / Fold change vs veh, EDEM3 / RFU, TMEM33 / Fold change vs veh, TMEM33 / RFU, WDR75 / Fold change vs veh, WDR75 / RFU, AHCTF1 / Fold change vs veh, AHCTF1 / RFU, TFRC / Fold change vs veh, TFRC / RFU, ZDHHC17 / Fold change vs veh, ZDHHC17 / RFU, NOM1 / Fold change vs veh, NOM1 / RFU, ARL8B / Fold change vs veh, ARL8B / RFU, ZBTB11 / Fold change vs veh, ZBTB11 / RFU, TAMM41 / Fold change vs veh, TAMM41 / RFU, KIAA1704 /// LOC100996395 / Fold change vs veh, KIAA1704 /// LOC100996395 / RFU, ING1 / Fold change vs veh, ING1 / RFU, TRMT61B / Fold change vs veh, TRMT61B / RFU, FUBP3 / Fold change vs veh, FUBP3 / RFU, TP53 / Fold change vs veh, TP53 / RFU, TNKS2 / Fold change vs veh, TNKS2 / RFU, ZFP14 / Fold change vs veh, ZFP14 / RFU, ACTR2 / Fold change vs veh, ACTR2 / RFU, PPP3R1 / Fold change vs veh, PPP3R1 / RFU, PIK3R1 / Fold change vs veh, PIK3R1 / RFU, HNRNPA1 / Fold change vs veh, HNRNPA1 / RFU, RNF170 / Fold change vs veh, RNF170 / RFU, ZNF28 / Fold change vs veh, ZNF28 / RFU, RNGTT / Fold change vs veh, RNGTT / RFU, OGT / Fold change vs veh, OGT / RFU, BRD1 / Fold change vs veh, BRD1 / RFU, MARS / Fold change vs veh, MARS / RFU, ZNF655 / Fold change vs veh, ZNF655 / RFU, FAHD1 / Fold change vs veh, FAHD1 / RFU, BDP1 / Fold change vs veh, BDP1 / RFU, LRRCC1 / Fold change vs veh, LRRCC1 / RFU, ARID1A / Fold change vs veh, ARID1A / RFU, ZNF146 / Fold change vs veh, ZNF146 / RFU, ZNF330 / Fold change vs veh, ZNF330 / RFU, GPN3 / Fold change vs veh, GPN3 / RFU, C9orf123 / Fold change vs veh, C9orf123 / RFU, N4BP2L2 / Fold change vs veh, N4BP2L2 / RFU, ARFIP1 / Fold change vs veh, ARFIP1 / RFU, FAM179B / Fold change vs veh, FAM179B / RFU, BCL10 / Fold change vs veh, BCL10 / RFU, UHRF1BP1L / Fold change vs veh, UHRF1BP1L / RFU, BET1 / Fold change vs veh, BET1 / RFU, CNOT2 / Fold change vs veh, CNOT2 / RFU, ZNF268 / Fold change vs veh, ZNF268 / Fold change vs veh, ZNF507 / RFU, DGCR2 / Fold change vs veh, DGCR2 / RFU, WDSUB1 / Fold change vs veh, WDSUB1 / Fold change vs veh, HSP90B1 /// MIR3652 / RFU, ADSS / Fold change vs veh, ADSS / RFU, GK / Fold change vs veh, GK / RFU, ZNF148 / Fold change vs veh, ZNF148 / RFU, TAF9 / Fold change vs veh, TAF9 / RFU, SLC1A5 / Fold change vs veh, SLC1A5 / RFU, SLMO2 / Fold change vs veh, SLMO2 / RFU, ABCC4 / Fold change vs veh, ABCC4 / RFU, LOC101060439 /// RAP1B / Fold change vs veh, LOC101060439 /// RAP1B / RFU, RFX7 / Fold change vs veh, RFX7 / RFU, GTPBP10 / Fold change vs veh, GTPBP10 / RFU, CNEP1R1 / Fold change vs veh, CNEP1R1 / RFU, BIVM-ERCC5 /// ERCC5 / Fold change vs veh, BIVM-ERCC5 /// ERCC5 / RFU, ILF3 / Fold change vs veh, ILF3 / RFU 11762660_at / Fold change /veh 11762660_at / RFU VCAN (11757783_s_at) / Fold change /veh VCAN (11757783_s_at) / RFU DDX43 (11728927_at) / Fold change /veh DDX43 (11728927_at) / RFU KRT8 (11758188_x_at) / Fold change /veh KRT8 (11758188_x_at) / RFU NKD1 (11759106_at) / Fold change /veh NKD1 (11759106_at) / RFU SRD5A1 (11742802_a_at) / Fold change /veh SRD5A1 (11742802_a_at) / RFU TPSAB1 /// TPSB2 (11721975_s_at) / Fold change /veh TPSAB1 /// TPSB2 (11721975_s_at) / RFU GSTM3 (11746129_a_at) / Fold change /veh GSTM3 (11746129_a_at) / RFU IL23R (11737362_x_at) / Fold change /veh IL23R (11737362_x_at) / RFU TMEM51 (11727254_a_at) / Fold change /veh TMEM51 (11727254_a_at) / RFU PIWIL2 (11732686_x_at) / Fold change /veh PIWIL2 (11732686_x_at) / RFU ORM1 (11744905_x_at) / Fold change /veh ORM1 (11744905_x_at) / RFU CCDC152 (11743942_at) / Fold change /veh CCDC152 (11743942_at) / RFU ECM1 (11717891_a_at) / Fold change /veh ECM1 (11717891_a_at) / RFU IL23R (11748794_a_at) / Fold change /veh IL23R (11748794_a_at) / RFU TNFAIP8L3 (11732012_x_at) / Fold change /veh TNFAIP8L3 (11732012_x_at) / RFU MBOAT4 (11741988_at) / Fold change /veh MBOAT4 (11741988_at) / RFU 11764193_at / Fold change /veh 11764193_at / RFU TMEM53 (11763286_at) / Fold change /veh TMEM53 (11763286_at) / RFU MAGEB2 (11727129_at) / Fold change /veh MAGEB2 (11727129_at) / RFU TMEM200A (11744735_a_at) / Fold change /veh TMEM200A (11744735_a_at) / RFU CCDC152 (11751479_a_at) / Fold change /veh CCDC152 (11751479_a_at) / RFU FAM211A (11726209_a_at) / Fold change /veh FAM211A (11726209_a_at) / RFU RGS16 (11746705_a_at) / Fold change /veh RGS16 (11746705_a_at) / RFU VCAN (11755009_s_at) / Fold change /veh VCAN (11755009_s_at) / RFU RHOB (11743442_s_at) / Fold change /veh RHOB (11743442_s_at) / RFU RGS16 (11720943_a_at) / Fold change /veh RGS16 (11720943_a_at) / RFU RGS16 (11720944_at) / Fold change /veh RGS16 (11720944_at) / RFU, VPS4B / Fold change vs veh, VPS4B / RFU, CREB1 / Fold change vs veh, CREB1 / RFU, DNAJC13 / Fold change vs veh, DNAJC13 / RFU, GNAQ / Fold change vs veh, GNAQ / RFU, CDK5R1 / Fold change vs veh, CDK5R1 / RFU, ZRANB3 / Fold change vs veh, ZRANB3 / RFU, CUL4A / Fold change vs veh, CUL4A / RFU, CCNY / Fold change vs veh, CCNY / RFU, UFL1 / Fold change vs veh, UFL1 / RFU, COG3 / Fold change vs veh, COG3 / RFU, DIAPH2 / Fold change vs veh, DIAPH2 / RFU, SKA2 / Fold change vs veh, SKA2 / RFU, AFF3 / Fold change vs veh, AFF3 / RFU, LMF1 / Fold change vs veh, LMF1 / RFU, IPO11 / Fold change vs veh, IPO11 / RFU, DFFB / Fold change vs veh, DFFB / RFU, FOXP1 / Fold change vs veh, FOXP1 / RFU, CARD8 / Fold change vs veh, CARD8 / RFU, STRN3 / Fold change vs veh, STRN3 / RFU, ADK / Fold change vs veh, ADK / RFU, RASSF2 / Fold change vs veh, RASSF2 / RFU, WIPF1 / Fold change vs veh, WIPF1 / RFU, LARP1B / Fold change vs veh, LARP1B / RFU, RASA1 / Fold change vs veh, RASA1 / RFU, RB1 / Fold change vs veh, RB1 / RFU, PPFIA1 / Fold change vs veh, PPFIA1 / RFU, MAT2A / Fold change vs veh, MAT2A / RFU, CCT5 / Fold change vs veh, CCT5 / RFU, WDR92 / Fold change vs veh, WDR92 / RFU, CUX1 / Fold change vs veh, CUX1 / RFU, TTC7A / Fold change vs veh, TTC7A / RFU, TMEM135 / Fold change vs veh, TMEM135 / RFU, DEPTOR / Fold change vs veh, DEPTOR / RFU, CPM / Fold change vs veh, CPM / RFU, DNAJB6 / Fold change vs veh, DNAJB6 / RFU, CACNA2D3 / Fold change vs veh, CACNA2D3 / RFU, DTX4 / Fold change vs veh, DTX4 / RFU, TFCP2 / Fold change vs veh, TFCP2 / RFU, GMCL1 /// GMCL1P1 / Fold change vs veh, GMCL1 /// GMCL1P1 / RFU, AEBP2 / Fold change vs veh, AEBP2 / RFU, SNHG1 /// SNORD22 /// SNORD25 /// SNORD26 /// SNORD27 /// SNORD28 /// SNORD29 /// SNORD31 / Fold change vs veh, SNHG1 /// SNORD22 /// SNORD25 /// SNORD26 /// SNORD27 /// SNORD28 /// SNORD29 /// SNORD31 / Fold change (Aza/veh), C12orf56 (ProbeSet 11735607_a_at) / Fold change (ACY-1035/veh), C12orf56 (ProbeSet 11735607_a_at) / Fold change (Aza/veh), FGFR1OP (ProbeSet 11751329_s_at) / Fold change (ACY-1035/veh), FGFR1OP (ProbeSet 11751329_s_at) / Fold change (Aza/veh), VPS36 (ProbeSet 11739960_a_at) / Fold change (ACY-1035/veh), VPS36 (ProbeSet 11739960_a_at) / RFU SYPL1 (11715823_x_at) / Fold change /veh SYPL1 (11715823_x_at) / RFU IGFBP7 (11715501_s_at) / Fold change /veh IGFBP7 (11715501_s_at) / RFU REEP3 (11722064_at) / Fold change /veh REEP3 (11722064_at) / RFU IGLL1 (11728026_x_at) / Fold change /veh IGLL1 (11728026_x_at): dose or concentration left out as unconfirmed
Settings: MV-4-11 cells, 48 hours

Nc1ncn([C@@H]2O[C@H](CO)[C@@H](O)[C@H]2O)c(=O)n1 [azacitidine]
Fold change /veh MAPK11 (11762145_a_at): 1.03
